Tests used:
[1] = test system: rat eyes post-alkali burn
Blood analysis = assay type: in vivo; parameters: HCT / MCH / WBC / RBC / HGB / MCHC: unit not given here; settings: rat blood
Protocol: The analysis of blood samples was performed directly using the ABX Micros ES 60 (Horiba Medicals). The parameters analyzed included the number of red blood cells (RBC’s), white blood cells (WBC’s), platelets and hemoglobin content. Briefly, 20 μL of the blood sample was acquired in the instrument and the readings were recorded.

[2] = test system: conjunctival layer and corneal matrix; experiment: H&E histology of corneal segments, rat alkali burn model; assay type: in vivo; settings: 1 M NaOH 1 min, topical treatment 40 min
Protocol: After the completion of the study, all tissues that required to be examined (eyes, brain, kidneys, liver, spleen, heart and lungs) were isolated. The cornea was carefully separated from the eye without damaging it and washed using phosphate buffer saline (PBS). Tissues were fixed using 4% paraformaldehyde (PF) overnight at 4°C and then washed in PBS. The tissue segments were dehydrated in graded ethanol, embedded in paraffin and 5–7 μm thick sections were cut using a microtome. Sections were collected on poly-lysine coated slides using the Leica cryostat and were fixed immediately in ice-cold acetone. All the sections were stained for haematoxylin–eosin (H&E) for critical analysis.

[3] = Ocular and systemic pharmacokinetics of TSA after topical application; settings: for Concentration of TSA in Aqueous humor / Concentration of TSA in Conjunctiva / Concentration of TSA in Cornea / Concentration of TSA in Plasma / Concentration of TSA in Tear fluid: mean ±SD; for AUC0-8 / AUC0-∞ / Cmax / Tmax / t1/2: rat, topical application
Protocol: Pharmacokinetic analysis was done using the HPLC System for the levels of TSA in eye tissue and plasma samples was measured using PK methods. PK estimated using standard measurements for maximum concentration (Cmax), time to reach Cmax (Tmax), area under the concentration–time curve (AUC), elimination rate constant (K), elimination half-life (t1/2), apparent clearance (CL/F), apparent volume of distribution (Vd/F).

cornea = experiment: Mean opacity and mean permeability measurements, rat alkali burn model; assay type: in vivo; settings: 1 M NaOH 1 min, topical treatment 40 min
Protocol: The mean in vivo scores was determined using the mean opacity measurements. The rat eyes were excised carefully and carried to the laboratory in HBSS supplemented with penicillin/streptomycin. The measurement of mean opacity was carried out using an opacitometer which measures the transmission of light through the center of each mounted cornea. The mean permeability score was determined by adding a fluorescent (rhodamine solution) on the anterior side of the holder and the corneas were incubated in a horizontal position for 90 min at 32°C. The medium in the posterior chamber was removed and added to 96 well plates and the OD at 490 nm was read. The readings obtained at OD490 were used to determine the permeability of each treatment with respect to the change in the untreated corneas.

[4] = test system: expression of survivin, TGF-beta-1, alpha-SMA and collagen IV in alkali burnt cornea; experiment: Ex vivo RT-PCR dose ranging in alkali burnt rat eyes; settings: 1 M NaOH 1 min, treatment 40 min
Protocol: This procedure was carried out using a previously published protocol ([Lin et al., 2016]). Rat eyes were harvested from humanely killed rats and washed with HBSS. Rat eyes were further incubated with 1 M NaOH for 1 min and then treated with TSA ([…]), SurR9-C84A (0.5, 1.2, and 2.5 mg/kg), pSur/As-Sur ([…]) and empty plasmid (200, 400, and 800 μg/kg) for 40 min. Untreated eyes were maintained as controls. After treatment period, eyes were washed with PBS and total RNA was extracted using the TRIzol® reagent (cat# 15596-026, Thermo Fisher Scientific, Waltham, MA, USA), and complementary DNA (cDNA) was synthesized from RNA using the RevertAid H Minus First Strand cDNA Synthesis Kit (cat# K1631, Thermo Fisher Scientific). Expression of survivin, TGF-beta-1, alpha-SMA and collagen IV was determined by polymerase chain reaction (PCR).

rat corneal tissues = settings: confocal microscopy
corneal lysate = experiment: Multianalyte ELISA of inflammatory cytokines in corneal lysate; assay type: in vivo, rat
Protocol: The cytokine profiling was performed using the Rat Inflammatory Cytokines & Chemokines Multi-Analyte ELISArray Kit (QIAGEN, USA). Briefly, serial dilutions of the Antigen Standard and the experimental samples were prepared. 50 μL of Assay Buffer was added to each well of the 8-well ELISA strips. Fifty microliters samples and/or standards were added to the appropriate wells of the ELISA strips and incubated for 2 h at room temperature. The ELISA strips were further washed using 350 μL 1 × Washing Buffer thrice. Hundred microliters of Detection Antibody solution was added to the ELISA strips and incubated for 1 h at room temperature. ELISA wells were washed as mentioned above. Hundred microliters of the Avidin–HRP solution was added to all wells and incubated for 30 min at room temperature. ELISA wells were washed as mentioned above. Hundred microliters of Development Solution was added to each well and incubated for 15 min at room temperature in the dark. Hundred microliters of Stop Solution was added to each well. The color changed from blue to yellow. The absorbance at 450 nm was measured within 30 min of stopping the reaction. The estimation of pg/mL of cytokines was performed using the values obtained from antigen standards and a graph was plotted for the cytokine expression with the effect of treatments.

[5] = 2 min after topical application in eye
[6] = 10 min after topical application in eye
[7] = 30 min after topical application in eye

For `CC(/C=C/C(=O)NO)=C\[C@@H](C)C(=O)c1ccc(N(C)C)cc1` [TSA, trichostatin A], the “Collagen type IV gene expression, qRT-PCR” value [1] was “efficiently downregulated”, the “Fibronectin-1 gene expression, qRT-PCR” value [1] was “significantly enhanced” and the “IL-1 beta gene expression, qRT-PCR” value [1] was “increase”. For the same molecule, the “IL-6 gene expression, qRT-PCR” value [1] was “significantly lowered”, the “MMP-2 gene expression, qRT-PCR” value [1] was “downregulating” and the “TGF-beta-1 gene expression, qRT-PCR” value [1] was “further increase”. For the same molecule, the “TNF-alpha gene expression, qRT-PCR” value [1] was “significantly lowered”, the “alpha-SMA gene expression, qRT-PCR” value [1] was “significant increase” and the “alpha-integrin 5 gene expression, qRT-PCR” value [1] was “significant increase”. For the same molecule, the HCT (Blood analysis) was “increased the HCT count to normal range”, the HGB (Blood analysis) was 17.61 ± 1.41 and the MCH (Blood analysis) was “reduced to normal range”. For the same molecule, the MCHC (Blood analysis) was 38.15 ± 1.63, the PLT (Blood analysis) was 256.33 ± 117 and the RBC (Blood analysis) was 8.15 ± 0.61. It also gave a WBC (Blood analysis) of 5.48 ± 2.06, an MCV (Blood analysis; in fL (unit assumed)) of 56.66 ± 1.86 and an HCT (Blood analysis; listed as NaOH–TSA) of 46.2 ± 4.14. For the same molecule, the MCH (Blood analysis; listed as NaOH–TSA) was 21.63 ± 1.01, the “corneal tissue integrity (conjunctival layer, corneal matrix), H&E” value [2] was “recovery of the conjunctival layer” and the “enhancement of Fibronectin-1 expression, western blot” value (rat corneal lysates; post-NaOH insult) was 1.97 fold. For the same molecule, the “increase in TGF-beta-1 expression, western blot” value (rat corneal lysates; post-NaOH insult) was 1.45 fold, the “decrease/downregulation of collagen type IV, western blot” value (rat corneal lysates; rat, in vivo, iv) was 2.8 fold and the “Concentration of TSA in Aqueous humor” value [3, 5] was 119.43 ± 37.92 ng/mL. For the same molecule, the “Concentration of TSA in Conjunctiva” value [3, 5] was 267.88 ± 75.51 µg/g, the “Concentration of TSA in Cornea” value [3, 5] was 216.83 ± 78.05 µg/g and the “Concentration of TSA in Plasma” value [3, 5] was 103.61 ± 28.37 ng/mL. The “Concentration of TSA in Tear fluid” value [3, 5] was 333.42 ± 69.72 µg/g, the “Concentration of TSA in Aqueous humor” value [3, 6] was 112.94 ± 15.10 ng/mL and the “Concentration of TSA in Conjunctiva” value [3, 6] was 261.29 ± 66.47 µg/g. For the same molecule, the “Concentration of TSA in Cornea” value [3, 6] was 291.02 ± 109.25 µg/g, the “Concentration of TSA in Plasma” value [3, 6] was 263.87 ± 80.96 ng/mL and the “Concentration of TSA in Tear fluid” value [3, 6] was 208.93 ± 30.82 µg/g. For the same molecule, the “Concentration of TSA in Conjunctiva” value [3, 7] was 178.23 ± 35.22 µg/g, the “Concentration of TSA in Cornea” value [3, 7] was 762.86 ± 385.68 µg/g and the “Concentration of TSA in Plasma” value [3, 7] was 109.16 ± 33.00 ng/mL. The “Concentration of TSA in Tear fluid” value [3, 7] was 154.98 ± 73.25 µg/g, the AUC0-8 ([3]; Aqueous humor) was 7568 µg·h/g and the “AUC0-∞” value ([3]; Aqueous humor) was 7689 µg·h/g. For the same molecule, the Cmax ([3]; Aqueous humor) was 11,046 ± 2734 μg/g, the Tmax ([3]; Aqueous humor) was 20 min and the t1/2 ([3]; Aqueous humor) was 90 min. For the same molecule, the AUC0-8 ([3]; Conjunctiva) was 53.4 µg·h/g, the Cmax ([3]; Conjunctiva) was 26.26 ± 7.19 µg/g and the Tmax ([3]; Conjunctiva) was 5 min. For the same molecule, the t1/2 ([3]; Conjunctiva) was 252 min, the AUC0-8 ([3]; Cornea) was 45.5 µg·h/g and the “AUC0-∞” value ([3]; Cornea) was 55.5 µg·h/g. It also gave a Cmax ([3]; Cornea) of 44.67 ± 12.91 µg/g, a Tmax ([3]; Cornea) of 5 min and a t1/2 ([3]; Cornea) of 210 min. For the same molecule, the AUC0-8 ([3]; Plasma) was 65.5 µg·h/g, the “AUC0-∞” value ([3]; Plasma) was 68.4 µg·h/g and the Cmax ([3]; Plasma) was 160.3 ± 61.0 µg/g. It also gave a Tmax ([3]; Plasma) of 10 min, a t1/2 ([3]; Plasma) of 90 min and an AUC0-8 ([3]; Tear fluid) of 678.5 µg·h/g. For the same molecule, the “AUC0-∞” value ([3]; Tear fluid) was 768.5 µg·h/g, the Cmax ([3]; Tear fluid) was 2,987 ± 1814 μg/g and the Tmax ([3]; Tear fluid) was 5 min. For the same molecule, the t1/2 ([3]; Tear fluid) was 138 min, the “Mean in vitro score” value (cornea) was 0.20 ± 0.5^∗ and the Mean opacity measurement (cornea) was 0.5 ± 0.2 ^∗. The Predicted irritation potential (cornea) was “No irritation”, the “most effective dosage in inhibiting expression of survivin, alpha-SMA, TGF-beta-1 and collagen IV” value [4] was 0.02 mg/kg and the “alpha-SMA expression, immunofluorescence” value (rat corneal tissues) was “failed to downregulate it effectively”. For the same molecule, the “collagen type IV expression, immunofluorescence” value (rat corneal tissues) was “most effective in increasing”, the “GMCSF expression, ELISA” value (corneal lysate) was “downregulated effectively” and the “IFN-gamma expression, ELISA” value (corneal lysate) was “significant downregulation”. For the same molecule, the “IL-1 beta expression, ELISA” value (corneal lysate) was “downregulation”, the “IL-2 expression, ELISA” value (corneal lysate) was “significantly increased” and the “IL-4 expression, ELISA” value (corneal lysate) was “increase”. The “IL-6 expression, ELISA” value (corneal lysate) was “downregulated effectively”, the “IL-12 expression, ELISA” value (corneal lysate) was “further downregulation” and the “IL-13 expression, ELISA” value (corneal lysate) was “downregulated effectively”. For the same molecule, the “Rantes expression, ELISA” value (corneal lysate) was “significantly downregulated” and the “TNF-alpha expression, ELISA” value (corneal lysate) was “downregulated effectively”.

From paper PMC5418359, “Topical Ophthalmic Formulation of Trichostatin A and SurR9-C84A for Quick Recovery Post-alkali Burn of Corneal Haze” (Frontiers in Pharmacology, 2017)
